In US12043602B2, “Fendiline derivatives” (The Board of Regents of the University of Texas System, priority 2019, dated 2024):
pEC50: −log10 of the molar value. Like-named read-outs stand apart in the source and are kept apart here.

Columns and labels:
[1] = test system: MDCK cells co-expressing GFP-K-RASG12V and mCherry-CAAX; test: Cytotoxicity in mislocalization screen (death of all cells in well); settings: drug caused death of all cells in well at 30 μM
mGFP-K-RASG12V = mGFP-K-RASG12V (Homo sapiens (Human), UniProt P01116, G12V); test: K-Ras mislocalization assay (confocal microscopy, Manders coefficient); type: cell-based; parameters: key to Emax: Manders coefficient: fraction of mCherry-CAAX co-localizing with GFP-K-Ras; settings: for IC50 / pEC50 / Emax: MDCK cells; for IC50: 48 h treatment, read-out: IC50 (μM), KRASG12V mislocalization; for pEC50: batch 4 compounds, title calls it IC50, read-out: EC50; for pEC50 / Emax: 48 h; for Emax: maximal effect, Manders coefficient
Summary of the method: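 Readout is the Manders coefficient: share of mCherry-CAAX overlapping mGFP-K-RASG12V in confocal images, proportional to K-Ras mislocalization. Stable MDCK co-expressing lines were exposed 48 h to various drug concentrations or 0.1% DMSO vehicle, then paraformaldehyde-fixed.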

Structure (SMILES) | Cytotoxic at 30 μM [1] | IC50 (mGFP-K-RASG12V) [µM] | Emax (mGFP-K-RASG12V) | further results
C[C@H](c1ccc([N+](=O)[O-])cc1)N(CC=C(c1ccccc1)c1ccccc1)CCN1CCN(C)CC1 [NY0522, (R)-N-(2-(4-methylpiperazin-1-yl)ethyl)-N-(1-(4-nitrophenyl)ethyl)-3,3-diphenylprop-2-en-1-amine] | Yes | 5.2 | 0.621 | pEC50 (mGFP-K-RASG12V): 5.29; Emax (mGFP-K-RASG12V; listed as 15h): 0.62 ± 0.02
C[C@H](c1ccc(F)cc1)N(CC=C(c1ccccc1)c1ccccc1)CCn1cc(CO)nn1 [PW304, (R)-(1-(2-((3,3-diphenylallyl)(1-(4-fluorophenyl)ethyl)amino)ethyl)-1H-1,2,3-triazol-4-yl)methanol] | No | 2.77 | 0.794 | –
C[C@@H](NCC(=O)N1c2ccccc2CCc2ccccc21)c1ccc(F)cc1 [NY0583, (R)-1-(10,11-dihydro-5H-dibenzo[b,f]azepin-5-yl)-2-((1-(4-fluorophenyl)ethyl)amino)ethan-1-one] | No | – | 0.725 | pEC50 (mGFP-K-RASG12V): 5.41
C[C@H](c1ccc(F)cc1)N(CCN1CCCC1)C(=O)Nc1ccc(C(F)(F)F)cc1 [PW321, (R)-1-(1-(4-Fluorophenyl)ethyl)-1-(2-(pyrrolidin-1-yl)ethyl)-3-(4-(trifluoromethyl)phenyl)urea] | No | – | 0.587 | –
COc1ccc(CCN(CC=C(c2ccccc2)c2ccccc2)CC=C(c2ccccc2)c2ccccc2)cc1 [NY0220, N-(3,3-diphenylallyl)-N-(4-methoxyphenethyl)-3,3-diphenylprop-2-en-1-amine] | No | 3.65 | 0.605 | –
COc1ccc([C@@H](C)N(CC=C(c2ccccc2)c2ccccc2)C(=O)CN2CCC(O)CC2)cc1 [PW126, (R)-N-(3,3-diphenylallyl)-2-(4-hydroxypiperidin-1-yl)-N-(1-(4-methoxyphenyl)ethyl)acetamide] | Yes | 2.19 | 0.412 | –
COc1ccc(/C(=C\CN(CCN2CCCC2)[C@H](C)c2ccc(F)cc2)c2ccccc2)cc1 [PW460, (R,Z)-N-(1-(4-fluorophenyl)ethyl)-3-(4-methoxyphenyl)-3-phenyl-N-(2-(pyrrolidin-1-yl)ethyl)prop-2-en-1-amine] | Yes at 10 uM | 2.02 | 0.801 | –
Fc1ccc2c(c1)CCCN2CC=C(c1ccccc1)c1ccccc1 [NY293, 1-(3,3-diphenylallyl)-6-fluoro-1,2,3,4-tetrahydroquinoline] | No | 2.3 | 0.910 | –
C[C@H](c1ccc(F)cc1)N(C/C=C(/c1ccc(F)cc1)c1ccc(C(F)(F)F)cc1)CCN1CCCC1 [PW455, (R,E)-3-(4-fluorophenyl)-N-(1-(4-fluorophenyl)ethyl)-N-(2-(pyrrolidin-1-yl)ethyl)-3-(4-(trifluoromethyl)phenyl)prop-2-en-1-amine] | Yes at 10 uM | 1.86 | 0.821 | –
COc1ccc([C@@H](C)N(CC=C(c2ccccc2)c2ccccc2)C(=O)C(C)F)cc1 (stereo partly drawn) [NY314, N-(3,3-diphenylallyl)-2-fluoro-N-((R)-1-(4-methoxyphenyl)ethyl)propanamide] | No | 1.69 | 0.842 | –
C[C@@H](NCC(=O)N1c2ccccc2Sc2ccccc21)c1ccccc1 [NY0572, (R)-1-(10H-phenothiazin-10-yl)-2-((1-phenylethyl)amino)ethan-1-one] | No | – | 0.565 | –
COc1ccc([C@@H](C)N(CC=C(c2ccccc2)c2ccccc2)CCN2CCN(C(=O)C(C)F)CC2)cc1 (stereo partly drawn) [NY0591, 1-(4-(2-((3,3-diphenylallyl)((R)-1-(4-methoxyphenyl)ethyl)amino)ethyl)piperazin-1-yl)-2-fluoropropan-1-one] | No | – | 0.825 | –
C[C@H](c1cccc(Cl)c1)N(CC=C(c1ccccc1)c1ccccc1)CCN1CCN(C)CC1 [NY0370b, (R)-N-(1-(3-chlorophenyl)ethyl)-N-(2-(4-methylpiperazin-1-yl)ethyl)-3,3-diphenylprop-2-en-1-amine] | Yes | 11.2 | 0.767 | Emax (mGFP-K-RASG12V; listed as 15g): 0.77 ± 0.07
C[C@@H](CN(CC=C(c1ccccc1)c1ccccc1)CC=C(c1ccccc1)c1ccccc1)c1ccccc1 [NY022701, (R)-N-(3,3-diphenylallyl)-3,3-diphenyl-N-(2-phenylpropyl)prop-2-en-1-amine] | No | – | 0.494 | –
COc1ccc([C@@H](C)N(CC=C(c2ccccc2)c2ccccc2)CCF)cc1 [NY315, (R)-N-(2-fluoroethyl)-N-(1-(4-methoxyphenyl)ethyl)-3,3-diphenylprop-2-en-1-amine] | No | 10.1 | 0.52 ± 0.04 | fold loss of potency to mislocalize KRAS (mGFP-K-RASG12V; in comparison with 7): 20 fold
CCOC(CCCN(CC=C(c1ccccc1)c1ccccc1)[C@H](C)c1ccc(OC)cc1)OCC [NY348, (R)-N-(3,3-diphenylallyl)-4,4-diethoxy-N-(1-(4-methoxyphenyl)ethyl)butan-1-amine] | No | 5.47 | 0.963 | –
CCCCNC(=O)N(CC=C(c1ccccc1)c1ccccc1)[C@H](C)c1ccc(OC)cc1 [NY0507, (R)-3-butyl-1-(3,3-diphenylallyl)-1-(1-(4-methoxyphenyl)ethyl)urea] | No | – | 0.858 | pEC50 (mGFP-K-RASG12V): 5.77
O=C(OCc1ccccc1)N(CC=C(c1ccccc1)c1ccccc1)CCN1CCCC1 [PW280, benzyl (3,3-diphenylallyl)(2-(pyrrolidin-1-yl)ethyl)carbamate] | Yes | 6.03 | 0.709 | –
C[C@@H](NCCN1c2ccccc2Sc2ccccc21)c1ccc(F)cc1 [NY0575, (R)-N-(2-(10H-phenothiazin-10-yl)ethyl)-1-(4-fluorophenyl)ethan-1-amine] | No | – | 0.484 | pEC50 (mGFP-K-RASG12V): 5.37
CCN(CC=C(c1ccccc1)c1ccccc1)[C@H](C)c1ccc(OC)cc1 [NY0429, (R)-N-ethyl-N-(1-(4-methoxyphenyl)ethyl)-3,3-diphenylprop-2-en-1-amine] | No | 10.6 | 0.835 | IC50 (mGFP-K-RASG12V; listed as 11b): 10.6 µM; Emax (mGFP-K-RASG12V; listed as 11b): 0.84 ± 0.02
C[C@@H](CNCC=C(c1ccccc1)c1ccccc1)c1ccccc1 [NY022702, (R)-3,3-diphenyl-N-(2-phenylpropyl)prop-2-en-1-amine] | No | 16.9 | 0.608 | –
O=C(/C=C/c1ccccc1)N(CC=C(c1ccccc1)c1ccccc1)CCN1CCCC1 [PW284, N-(3,3-diphenylallyl)-N-(2-(pyrrolidin-1-yl)ethyl)cinnamamide] | Yes | – | 0.549 | –
COc1ccc([C@@H](C)N(CC=C(c2ccccc2)c2ccccc2)C(=O)Oc2ccccc2)cc1 [NY0225, (R)-phenyl (3,3-diphenylallyl)(1-(4-methoxyphenyl)ethyl)carbamate] | Yes | 0.43 | 0.626 | –
Cc1nnc([C@H](NCC=C(c2ccccc2)c2ccccc2)c2ccccc2)o1 [NY0570, (R)-N-((5-methyl-1,3,4-oxadiazol-2-yl)(phenyl)methyl)-3,3-diphenylprop-2-en-1-amine] | No | – | 0.397 | –
C[C@H](c1ccc(F)cc1)N(CCN1CCCC1)C(=O)c1ccc(C(F)(F)F)cc1 [PW322, (R)-N-(1-(4-Fluorophenyl)ethyl)-N-(2-(pyrrolidin-1-yl)ethyl)-4-(trifluoromethyl)benzamide] | No | – | 0.662 | –
O=C(Nc1ccc(F)cc1)N(CC=C(c1ccccc1)c1ccccc1)CCN1CCCC1 [PW279, 1-(3,3-diphenylallyl)-3-(4-fluorophenyl)-1-(2-(pyrrolidin-1-yl)ethyl)urea] | Yes | 3.4 | 0.608 | –
C(CN1CCC(c2ccccc2)CC1)=C(c1ccccc1)c1ccccc1 [NY306, 1-(3,3-diphenylallyl)-4-phenylpiperidine] | No | 3.95 | 0.893 | –
C(CN(CC=C(c1ccccc1)c1ccccc1)[C@@H]1C[C@H]1c1ccccc1)=C(c1ccccc1)c1ccccc1 [NY022601, (1R,2S)-N,N-bis(3,3-diphenylallyl)-2-phenylcyclopropanamine] | No | 0.42 | 0.713 | –
C(CN(CCN1CCCC1)[C@@H]1C[C@H]1c1ccccc1)=C(c1ccccc1)c1ccccc1 [NY0592, (1R,2S)-N-(3,3-diphenylallyl)-2-phenyl-N-(2-(pyrrolidin-1-yl)ethyl)cyclopropan-1-amine] | Yes | – | 0.685 | pEC50 (mGFP-K-RASG12V): 5.25
C[C@H](c1ccc(F)cc1)N(CC=C(c1ccccc1)c1ccccc1)CCn1cc(CN(C)C)nn1 [PW306, (R)-N-(2-(4-((dimethylamino)methyl)-1H-1,2,3-triazol-1-yl)ethyl)-N-(1-(4-fluorophenyl)ethyl)-3,3-diphenylprop-2-en-1-amine] | Yes | 3.19 | 0.666 | –
